Reference: paper PMC6178282, “Comparative cell biological study of in vitro antitumor and antimetastatic activity on melanoma cells of GnRH-III-containing conjugates modified with short-chain fatty acids” (Beilstein Journal of Organic Chemistry, 2018)

Legend:
A2058 melanoma cells = experiment: Morphometry analysis by HoloMonitor M4 holographic microscopy; assay type: cell-based, human; details: fold change during treatment normalized to control cells, average ± SD, 50 cells/group, 180 consecutive frames
Method: Holographic microscopic measurements were also performed to visualize the morphological changes induced by the conjugates and Dau. This novel technique provided several morphological parameters (e.g., surface area, optical thickness, eccentricity etc.) that allowed understanding of the results of impedance-based adhesion measurement. Holographic images were taken before and after the 3-hour treatment of A2058 cells with the compounds. The change in the morphological parameters shown in Table S1 in Supporting Information File 2 was calculated from a fold change during 3 h long treatment and this value was normalized to that of the control cells. The adhesion inducer effects of Dau and GnRH-III(Dau=Aoa) detected by the impedimetric assay were reflected in the morphometry analysis.
The experimental set up we used for the morphometry analysis can be also found in [6]. The HolomonitorTM M4 microscope (Phase Holographic Imaging AB, Lund, Sweden) was used for imaging and tracking the morphological changes of A2058 cells induced by the conjugates and Dau. This technique is dedicated to analyzing the morphology and movement of adherent cells by recording 3D, holographic phase contrast images and tracking them over a given time period. The principle behind this method is the detection of the phase shift of the probing laser light transmitting or reflecting through a cell sample and comparison to the reference light […]
A2058 cells were seeded (2.5 × 10^5 cells) in a petri dish (diameter: 35 mm) and allowed to adhere for 24 h. After automatic calibration of the background and microscope objective (20×), one field of each sample was focused on by the digital autofocus feature. The cells were then treated with the test compounds at the final concentrations of 10−7–10−5 mol/L, or with an equivalent volume of culture medium, and captured every 30 sec for 2 h.
For the evaluation, ca. 50 cells per time-lapse sequence were identified and selected by the minimum error histogram-based threshold algorithm of the HStudioTM M4 2.7.1 software (Phase Holographic Imaging AB, Lund, Sweden). The morphological changes were automatically analyzed over time by selecting and tracking individual cells.
For the morphometry analysis, different basic and complex morphological parameters were […]
The (i) area (surface area of the image occupied by a cell) and (ii) thickness (average spatial cell thickness) were grouped as basic metrics, while the more complex parameters relating to cell shape were: (iii) the eccentricity (how elongated a cell is comparing to a circle), (iv) the hull convexity (how different the 3D shape of a cell is compared to a perfect convex shape) and (v) the irregularity (how different the circumference of a cell is compared to the circumference of a perfect circle).
Table S1: Morphological changes of A2058 melanoma cells induced by the conjugates Compounds/ Area Thickness Eccentricity Hull convexity Irregularity concentrations [%] [%] [%] [%] [%]
[4Lys(Ac)] -GnRH-III(Dau=Aoa )
[4Lys(Bu)]-GnRH-III(Dau=Aoa)
Area (μm2) – surface area of the image that is occupied by the cell; Thickness (μm) – average thickness of the cell; Eccentricity – how elongated a cell comparing to a circle shape; Hull convexity – how different the 3D shape of a cell from the perfect convex shape; Irregularity – how different the circumference of a cell from the circumference of a perfect circle
Data represent averages and ±SD values calculated for 50 cells/group in 180 consecutive frames.
The presented data were calculated by HoloStudioTM M4 2.5 and analyzed by Origin Pro 2016. The levels of significance are shown as follows: *: p<0.05; **: p<0.01; ***: p<0.001

A2058 cells = experiment: Cellular uptake by flow cytometry (Dau fluorescence); assay type: cell-based, human; details: 10^−5 M, 1, 4 and 6 h, FACSCalibur flow cytometry, mean of 2 parallels
Method: For investigation and comparison of the cellular uptake of the conjugates, A2058 cells were treated with the conjugates at 10^−5 M concentration for 1, 4 and 6 h. The fluorescence intensity of intracellular Dau built in the conjugates and as the free drug was determined by flow cytometry (FACSCalibur; Becton Dickinson, San Jose, CA, USA).
Figure 2 Cellular uptake of Dau–GnRH-III conjugates and free daunorubicin (Dau) by A2058 cells. Cellular uptake of the compounds was studied in 10^−5 M concentration. GeoMean (geometric mean channel) value is a dimensionless value and refers to the relative fluorescence intensity. Data shown are mean of 2 parallels ± SD. […]
To study the cellular uptake of conjugates and Dau as the reference drug, A2058 cells (2 × 10^5 cells/well) were seeded on 12-well plates and cultured for 24 h. […] The measurements of internalized conjugates are based on the fluorescence activity of Dau. For detecting the intracellular fluorescence intensity of the cells, which is proportional with the cellular uptake, FACSCalibur flow cytometer (Becton Dickinson, San Jose, CA, USA) was used by collecting 10000 cells for each measurement. […] CellQuest Pro program (Becton-Dickinson, San Jose, CA, USA) was used for the measurement and the evaluation of relative fluorescence intensity (geometric mean channel – GeoMean values). […]

Which Area (A2058 melanoma cells; 10^-5 M) does the source give for `COc1cccc2c1C(=O)c1c(O)c3c(c(O)c1C2=O)C[C@@](O)(C(C)=O)C[C@@H]3O[C@H]1C[C@H](N)[C@H](O)[C@H](C)O1` [daunorubicin] here?
Its Area is 99.1 ± 4.1%.

And the Eccentricity (A2058 melanoma cells; 10^-5 M)?
Its Eccentricity is 104.4 ± 1.84%.

What about the Hull convexity (A2058 melanoma cells; 10^-5 M) of the same compound?
Its Hull convexity is 101.2 ± 0.29%.

What about the Irregularity (A2058 melanoma cells; 10^-5 M) of the same compound?
Its Irregularity is 102.6 ± 2.54%.

What about the Thickness (A2058 melanoma cells; 10^-5 M) of the same compound?
The Thickness was 104.5 ± 2.12%.

And the Eccentricity (A2058 melanoma cells; 10^-6 M)?
Its Eccentricity is 96.6 ± 1.83%.

And the Hull convexity (A2058 melanoma cells; 10^-6 M)?
Its Hull convexity is 100.1 ± 0.23%.

What about the Thickness (A2058 melanoma cells; 10^-6 M) of the same compound?
The Thickness was 95.4 ± 1.87%.

What about the Area (A2058 melanoma cells; 10^-6 M, listed as Dau) of the same compound?
Its Area is 124.1%.

And the Area (A2058 melanoma cells; 10^-7 M)?
The Area was 94.5 ± 3.72%.

What about the Eccentricity (A2058 melanoma cells; 10^-7 M) of the same compound?
The Eccentricity was 95.2 ± 2.25%.

What about the Hull convexity (A2058 melanoma cells; 10^-7 M) of the same compound?
The Hull convexity was 103.4 ± 0.29%.

What about the Irregularity (A2058 melanoma cells; 10^-7 M) of the same compound?
Its Irregularity is 94.5 ± 2.41%.

What about the Thickness (A2058 melanoma cells; 10^-7 M) of the same compound?
Its Thickness is 101.8 ± 1.95%.

What about the “Cellular uptake (GeoMean, relative intracellular fluorescence intensity normalized to control)” value (A2058 cells) of the same compound?
Its value is “high level of intracellular fluorescence”.
